How the values were obtained:
Assay type in all cases: cell-based, human
Hep3B = test: Cell cycle analysis by flow cytometry (propidium iodide), Hep3B; conditions: 10 µM; for Cell cycle G0/G1 (percentage of cells) / Cell cycle G2/M (percentage of cells) / Cell cycle S (percentage of cells) / SubG0 (percentage of total cells): mean ± SE
Experimental: Exponentially growing cells were seeded in 6-wells plates (200,000 cells HepG2 and 180,000 cells Hep3B) 24 h before R2-viniferin treatment. On the day of treatment, the culture medium was replaced with culture medium containing R2-viniferin or vehicle solution (control).
After a treatment, cells were detached by trypsinization and fixed overnight at 4 °C in 70% ice-cold ethanol diluted in phosphate buffer saline (PBS). The ethanol was then discarded and the cells were washed with ice-cold PBS and finally stained with 25 μg/mL of propidium iodide (Sigma-Aldrich, St Louis, MO, USA) in the presence of 200 μg/mL ribonuclease A (Roche Biochemicals, Indianapolis, IN, USA) for 30 min at room temperature in the dark. Flow cytometry analysis (Beckman Coulter Gallios) was carried out from a total number of 10,000 events acquired in the General Research Services SGIker of the UPV/EHU. Analysis of the data was performed using Summit 4.3 software (Dako, Glostrup, Hovedstaden, Denmark).

[1] = tested on: mitochondrial O2- in HepG2; test: Mitochondrial O2- levels, MitoSOX probe, flow cytometry; conditions: HepG2, 5 and 10 µM, any of the doses or times assayed
Experimental: The mitochondrial superoxide anion (O2^−) levels were measured using MitoSOX™Red reagent (Molecular Probes, Eugene, OR, USA), which permeates living cells where it selectively targets mitochondria and is oxidized by superoxide.
HepG2 cells were cultured in a 6-well cell culture plate at a density of 2 × 10^5 cells per well 24 h before starting the treatment with R2-viniferin. The medium was renewed and cells were incubated with R2-viniferin as described above. After treatment, cells were washed and incubated with 20 μM H2DCF-DA or 4 μM MitoSOX™ for 30 min at 37 °C in the dark. The probe solution was then withdrawn and, after washing with PBS, the cells were trypsinized. The fluorescence intensity from living cells was measured by flow cytometry (DCF λex = 485/20 and λem = 528/20, MitoSOX λex = 485/20 and λem = 620/20) in a Beckman Coulter Gallios Flow cytometer in the General Research Services SGIker of the UPV/EHU. At least 10,000 events were detected. Data obtained from flow cytometry were analyzed using Summit 4.3 software (Dako, Hovedstaden, Denmark). Intracellular ROS and mitochondrial O2^− were expressed as the percentage of the fluorescence intensity in control cells at the same time of incubation.

[2] = tested on: caspase-3 activity in HepG2; test: Caspase-3 activity, Ac-DEVD-AMC fluorogenic substrate
Experimental: The activity of caspase-3 was measured using the specific synthetic tetrapeptide fluorogenic substrate Ac-DEVD-AMC (BD Pharmigen Biosciences, San Diego, CA, USA). The assay was carried out in 96-well plates in a total volume of 100 µL, with 37 μM of the substrate and 50 µg of protein in the assay medium in 100 mM HEPES, pH 7.4, containing 200 mM NaCl, 0.2% CHAPS, 2 mM EDTA, 20% glycerol, and 5 mM dithiothreitol (DTT).
In the presence of caspase-3, the Ac-DEVD-AMC substrate is hydrolyzed and the fluorogenic compound AMC is released. The activity was determined by continuous recording of the fluorescence at λex = 360 nm and λem = 460 nm at 37 °C for 2 h every 5 min in a Synergy HT microplate reader (BioTek, Winooski, VT, USA). Results were expressed as the percentage of the fluorescence in control cells.

[3] = tested on: Bax and Bcl-2 expression in HepG2 cells; test: Western blot analysis of Bax and Bcl-2 expression; conditions: 24 h
Experimental: HepG2 cells were seeded in Petri dishes, incubated for 24 h and then treated with 5 and 10 µM R2-viniferin. Following 24 h of treatment, the cells were lysed in ice for 30 min with lysis buffer (20 mM HEPES pH 7.5, 1 mM NaF, 10 mM EGTA, 40 mM β-glycerophosphate, 1% NP-40, 2.5 mM MgCl2, 2 mM orthovanadate, and 1 mM DTT) to which 10 μL/mL of a protease inhibitor cocktail (Sigma-Aldrich, St Louis, USA) was added just before use. Cellular fragments were removed by centrifugation at 12,000× g for 10 min at 4 °C, and total protein concentration was determined by Bradford assay. The cellular protein extracts were boiled at 95 °C for 5 min in Laemmli buffer and separated by sodium dodecyl sulfate–polyacrylamide gel electrophoresis in 15% polyacrylamide gels. Proteins were transferred onto polyvinylidene difluoride (PVDF) membranes by electro-blotting with constant amperage (1 mA/cm^2) for 2 h in a wet chamber. After blocking for 1 h in 5% bovine serum albumin (BSA) Tris-buffered saline containing Tween 20 at room temperature, membranes were incubated overnight at 4 °C with antibodies to Bax (Santa Cruz Biotechnology, 1:500), Bcl-2 (Santa Cruz Biotechnology, 1:500) and glyceraldehyde-3-phosphate dehydrogenase (GAPDH, Abcam, 1:2000). After washing, membranes were probed with their corresponding secondary antibody conjugated to horseradish peroxidase for 1 h at room temperature. Specific proteins were detected using the enhanced chemiluminescence (ECL) substrate kit (Clarity Western ECL substrate, Bio-Rad, Hercules, California, USA) and the blots were imaged with the C-DiGit LI-COR blot scanner (Bonsai Advanced technologies S.L. Madrid, Spain). Intensities of target protein bands were determined by densitometry and normalized to the intensity of the loading control GAPDH protein.

Compound: Oc1ccc([C@H]2c3c(O)cc(O)cc3[C@H]3c4c(cc(O)cc4[C@@H]2c2cc(/C=C/c4cc(O)cc5c4[C@H](c4cc(O)cc(O)c4)[C@@H](c4ccc(O)cc4)O5)ccc2O)O[C@@H]3c2ccc(O)cc2)cc1 [R2-Viniferin]
- Effect on cell cycle (Hep3B): did not alter cell cycle
- Cell cycle G0/G1 (percentage of cells) (Hep3B; 24 h): 63.6 ± 8.0%
- Cell cycle G2/M (percentage of cells) (Hep3B; 24 h): 20.7 ± 6.1%
- Cell cycle S (percentage of cells) (Hep3B; 24 h): 15.7 ± 3.7%
- SubG0 (percentage of total cells) (Hep3B; 24 h): 2.0 ± 0.6%
- Cell cycle G0/G1 (percentage of cells) (Hep3B; 48 h): 73.7 ± 3.4%
- Cell cycle G2/M (percentage of cells) (Hep3B; 48 h): 16.5 ± 2.0%
- Cell cycle S (percentage of cells) (Hep3B; 48 h): 10.4 ± 1.6%
- SubG0 (percentage of total cells) (Hep3B; 48 h): 1.8 ± 0.4%
- Cell cycle G0/G1 (percentage of cells) (Hep3B; 72 h): 75.5 ± 3.9%
- Cell cycle G2/M (percentage of cells) (Hep3B; 72 h): 14.7 ± 2.9%
- Cell cycle S (percentage of cells) (Hep3B; 72 h): 9.8 ± 1.2%
- SubG0 (percentage of total cells) (Hep3B; 72 h): 3.3 ± 0.7%
- Effect on mitochondrial O2- [1]: no significant effect
- Effect on caspase-3 activity ([2]; HepG2, 5 µM): increased caspase-3 activity at 72 h
- Effect on caspase-3 activity ([2]; HepG2, 10 µM): increased the caspase-3 activity significantly from 24 h to 72 h
- Bax/Bcl-2 ratio increase over control ([3]; HepG2, 5 µM): 39%
- Bax/Bcl-2 ratio increase over control ([3]; HepG2, 10 µM): 123%
- Expression of anti-apoptotic Bcl-2 proteins ([3]; HepG2, 5 and 10 µM): downregulated
- Expression of proapoptotic Bax protein ([3]; HepG2, 5 and 10 µM): upregulated
